# Data taken from PMC7747594, “Protease-activated receptor-2 ligands reveal orthosteric and allosteric mechanisms of receptor inhibition” (Communications Biology, 2020).
# “And” between values parts separate entries of the source, which are not always exact repeats. Identical values can stand only once.
# Experiments:
# Assay type in all cases: cell-based
# hPAR2 [1] = molecular target: T1, hPAR2 (Homo sapiens, UniProt P55085); assay: IP1 HTRF assay, inhibition of SLIGRL-NH2 in 1321N1-hPAR2 cells; conditions: SLIGRL-NH2, 1321N1-hPAR2 cells; mean ± s.e.m.; read-out: IP1 (hPAR2) pIC50 (converted)
# T1 sequence (P55085 26-397): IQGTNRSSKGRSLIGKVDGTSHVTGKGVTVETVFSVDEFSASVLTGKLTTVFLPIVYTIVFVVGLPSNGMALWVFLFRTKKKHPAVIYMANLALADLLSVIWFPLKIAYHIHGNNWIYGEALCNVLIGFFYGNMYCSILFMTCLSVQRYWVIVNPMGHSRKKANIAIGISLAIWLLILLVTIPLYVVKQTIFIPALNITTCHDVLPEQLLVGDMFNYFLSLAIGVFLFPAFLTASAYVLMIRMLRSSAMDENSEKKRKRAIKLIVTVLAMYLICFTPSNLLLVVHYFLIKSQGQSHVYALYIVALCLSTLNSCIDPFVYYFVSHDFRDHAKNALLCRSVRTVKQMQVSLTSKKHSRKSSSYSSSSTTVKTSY
# Method: Inhibition of PAR2-induced inositol-1-phosphate (IP1) production was measured in 1321N1-hPAR2 cells using IP-One Gq HTRF assay kit (Cisbio). […] Next, EC80 of SLIGRL-NH2 (70 µM) supplemented with 50 mM LiCl was added and incubated for 60 min at 37 °C. Detection of IP1 production was performed according to the manufacturer’s protocol and HTRF was measured using PHERAstar (BMG LabTech). Data were normalised to [IP1] using a standard curve.
# (§1) Binding data were analysed using the One site – Fit Ki model in GraphPad Prism 8 (GraphPad Software) to determine binding affinity. Pharmacology in vitro potency data was analysed with a 4-parameter logistic fit using the equation y = Bottom + (Top − Bottom)/[…] where y is the response, x is the 10-logarithm of the drug concentration, Bottom is no response and Top is full response in GraphPad Prism 8 or Genedata Screener (Genedata). pEC50 and pIC50 data are presented as mean ± standard error of the mean (s.e.m.) derived from the number of independent experiments stated. Schild slope analysis was calculated using Graphpad Prism 8 Gaddum/Schild EC50 global fitting (shared model parameters between all data sets) competitive model. […] Schild slope quantifies the shifts in agonist response in the presence of antagonist, a Schild slope of 1 indicates the antagonist is competitive and extra-sum-of-squares F-test (p < 0.05) was used to compare the calculated Schild slope against a hypothetical Schild slope of 1. […] The relative activity was calculated using (EmaxEC50’)/(Emax’EC50) with the Hill slope help constant at 1. EC50’ and Emax’ denote the EC50 and Emax in the absence of allosteric modulator, while EC50 and Emax denote those measured in the presence of allosteric modulator. When the Hill slope = 1, the relative activity plot approaches an asymptote corresponding to the estimate of the γ value.
# hPAR2 [2] = molecular target: T1, hPAR2; assay: pERK1/2 HTRF assay, inhibition of SLIGRL-NH2 in U2OS-hPAR2 cells; conditions: SLIGRL-NH2, U2OS-hPAR2; mean ± s.e.m.; read-out: pERK1/2 (hPAR2) pIC50 (converted)
# Method: Phosphorylation of ERK1/2 was measured in U2OS-hPAR2 cells using Phospho-ERK1/2 (Thr202/Tyr204) assay kit (64ERKPEH Cisbio) and the 2 plate manufacturer’s protocol with the following modifications. Cells were seeded in McCoy’s 5A media containing 10% FBS at 15,000 cells per well in 384-well plates and incubated overnight at 37 °C, 5% CO2. Antagonist compounds (30 µM–1 nM) were incubated with the cells for 30 min prior to the addition of agonist SLIGRL-NH2 (10 µM) at EC80 and further incubation for 5 min at 37 °C. The supernatant was removed from the wells and lysis buffer was added to the cells and incubated with shaking at room temperature for 30 min. The cell lysate was transferred into a small-volume 384-well plate containing detection antibodies and incubated for 4 h at room temperature in the dark. Plates were read for HTRF signal on PHERAstar (BMG LabTech). In addition, phosphorylation of ERK1/2 was measured in CHO-hPAR2 using AlphaLISA SureFire Ultra pERK1/2 (Thr202/Tyr204) (Perkin Elmer). Cells were seeded at a density of 2000 cells per well in a 384-well proxiplate and incubated overnight. […] After incubation, cell lysis buffer was added with shaking for 30 min. Antibodies and beads were added and incubated for 4 h at room temperature. AlphaLISA signal was measured using a PHERAstar (BMG LabTech).
# as §1
# hPAR2 [3] = molecular target: T1, hPAR2; assay: Ca^2+ flux assay (FLIPR), inhibition of SLIGRL-NH2 activation in 1321N1-hPAR2 cells; conditions: SLIGRL-NH2, 1321N1-hPAR2 cells; mean ± s.e.m.; read-out: Ca^2+ flux (hPAR2) pIC50 (converted)
# Method: (§2) Cells were loaded with Fluo-8 NW calcium dye (AAT Bioquest) for 30 min at 37 °C before compounds in Hank’s balanced salt solution (HBSS, ThermoFisher Scientific) with 20 mM HEPES (ThermoFisher Scientific), 0.1% bovine serum albumin (BSA, Sigma) and 0.5% DMSO were added and simultaneously evaluated for changes in intracellular [Ca^2+] using FLIPR TETRA (Molecular Devices) to detect agonism. For each concentration, the difference between the maximum peak Ca^2+ response and baseline response is reported. […] Antagonism experiments were also carried out on 1321N1-PAR2[WT], 1321N1-PAR2[F154A], and 1321N1-PAR2[G157C] as described. Experiments with trypsin in 1321N1-hPAR2 cells were performed in the presence of 1 µM Vorapaxar (Chemtronica) to remove any interference of PAR1 activity. […] Antagonism experiments for CHO-hPAR2 and HT-29 cells were performed in 96-well plates at 30,000 cells/well. Cells were loaded with Fluo-3 AM calcium dye (Sigma-Aldrich) for 60 min at 37 °C in HBSS with 1% FBS, 0.2% pluronic acid, 20 mM HEPES and 2.5 mM probenecid prior to the addition of antagonist. The antagonist was pre-incubated for 60 min at 37 °C followed by the addition of bovine trypsin (30 nM) at EC80. Intracellular [Ca^2+] flux was measured using FLIPR TETRA (Molecular Devices) and the difference between the maximum peak Ca^2+ response and baseline response is reported.
# as §1
# hPAR2 [4] = molecular target: T1, hPAR2; assay: β-arrestin-2 recruitment assay, inhibition of SLIGRL-NH2 in U2OS-hPAR2 cells; conditions: SLIGRL-NH2, U2OS-hPAR2; mean ± s.e.m.; read-out: β-arrestin (hPAR2) pIC50 (converted)
# Method: β‐Arrestin-2 recruitment was measured in U2OS-hPAR2 cells using the DiscoverX assay kit, according to the manufacturer’s instructions. Briefly, cells were seeded in McCoy’s 5A media containing 10% FBS at 4000 cells per well in 384-well plates and incubated overnight at 37 °C, 5% CO2. Antagonist compounds (30 µM–1 nM) were incubated with the cells for 30 min prior to the addition of agonist SLIGRL-NH2 (10 µM) at EC80 and further incubation for 90 min at 37 °C. Working detection solution (12 µl) was then added to each well, incubated at room temperature in the dark for 60 min and the chemiluminescence signal read on the EnVision microplate reader (Perkin Elmer).
# as §1
# hPAR2 [5] = molecular target: T1, hPAR2; assay: Ca^2+ flux assay, inhibition of trypsin activation in 1321N1-hPAR2 cells (with 1 µM Vorapaxar); conditions: 1321N1-hPAR2 cells, 1 µM Vorapaxar
# rat PAR2 = molecular target: T2, rat PAR2 (Rattus norvegicus, UniProt Q63645); assay: Ca^2+ flux assay, inhibition of SLIGRL-NH2 activation in rat KNRK cells; conditions: SLIGRL-NH2, rat PAR2 in KNRK cells; mean ± s.e.m.; read-out: Ca^2+ flux (rPAR2) pIC50 (converted)
# T2 construct: a rat KNRK cell line with endogenous expression of rat PAR2; host or cells: rat KNRK cells
# T2 sequence (Q63645 26-397): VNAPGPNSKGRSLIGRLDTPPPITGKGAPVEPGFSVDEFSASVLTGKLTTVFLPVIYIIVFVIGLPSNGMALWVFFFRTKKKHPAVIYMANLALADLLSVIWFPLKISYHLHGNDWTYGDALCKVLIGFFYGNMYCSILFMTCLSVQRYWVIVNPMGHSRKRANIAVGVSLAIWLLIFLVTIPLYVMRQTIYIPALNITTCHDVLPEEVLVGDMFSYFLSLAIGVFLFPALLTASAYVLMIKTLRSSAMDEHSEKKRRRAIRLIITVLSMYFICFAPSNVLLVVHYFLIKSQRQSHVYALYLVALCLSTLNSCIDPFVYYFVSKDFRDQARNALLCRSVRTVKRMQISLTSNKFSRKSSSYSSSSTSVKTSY
# parental 1321N1 cells = assay: Ca^2+ flux assay, agonist mode, parental 1321N1 cells; parameters: Ca2+ response (Fig 2c), individual replicate values: unit not given here; conditions: control
# Method: as §2
# hPAR2 [6] = molecular target: T1, hPAR2; assay: Schild and allosteric model analysis of Ca^2+ mobilisation in CHO-hPAR2 cells (2f-LIGRL-NH2 or trypsin); parameters: key to Relative activity: (Emax·EC50')/(Emax'·EC50), Hill slope held at 1; Emax: scale not given here
# Method: as §2, §1
# [7] = agonist in presence of AZ3451 0.1 µM
# [8] = agonist in presence of AZ3451 0.3 µM
# [9] = agonist in presence of AZ3451 1 µM
# [10] = agonist in presence of AZ3451 3 µM
# [11] = agonist in presence of AZ3451 10 µM
# [12] = agonist in presence of AZ3451 30 µM, CHO-hPAR2, Ca^2+
molecule,measurement,setting,value
C[C@@H](C1CCOCC1)n1c(-c2cc3c(cc2Br)OCO3)nc2cc(C(=O)Nc3ccc(C#N)cc3)ccc21 [AZ7126],IC50,hPAR2 [1],79.4 nM
same,IC50,hPAR2 [2],200 nM
same,IC50,hPAR2 [3],7.94 nM
same,IC50,hPAR2 [4],63.1 nM
same,shape of inhibition of trypsin-induced Ca^2+ mobilisation,hPAR2 [5],biphasic inhibition curves
same,IC50,rat PAR2,5.01 nM
C[C@@H](C1CCCCC1)n1c(-c2cc3c(cc2Br)OCO3)nc2cc(C(=O)Nc3ccccc3)ccc21 [AZ8935],IC50,hPAR2 [1],302 nM
same,IC50,hPAR2 [2],1260 nM
same,IC50,hPAR2 [3],20 nM
same,IC50,hPAR2 [4],380 nM
same,shape of inhibition of trypsin-induced Ca^2+ mobilisation,hPAR2 [5],biphasic inhibition curves
same,IC50,rat PAR2,7.94 nM
"CC[C@H](C)[C@H](NC(=O)[C@H](CC1CCCCC1)NC(=O)c1ccno1)C(=O)NCc1cccc(C(=O)N2CCC(CN)CC2)c1 [GB110, reference compound]","Ca2+ response (Fig 2c), individual replicate values","parental 1321N1 cells; [compound],M -4.30103",2.5854 and 0.2936 and 4.934 and 1.6114
same,"Ca2+ response (Fig 2c), individual replicate values","parental 1321N1 cells; [compound],M -4.77815",2.299 and 3.846 and -3.259
same,"Ca2+ response (Fig 2c), individual replicate values","parental 1321N1 cells; [compound],M -5.25527",4.705 and 2.815 and -0.222 and 3.388
same,"Ca2+ response (Fig 2c), individual replicate values","parental 1321N1 cells; [compound],M -5.73239",1.44 and 1.382
same,"Ca2+ response (Fig 2c), individual replicate values","parental 1321N1 cells; [compound],M -6.20952",3.273 and 1.783 and 1.382 and 0.4082
same,"Ca2+ response (Fig 2c), individual replicate values","parental 1321N1 cells; [compound],M -6.68664",2.872 and -6.524
same,"Ca2+ response (Fig 2c), individual replicate values","parental 1321N1 cells; [compound],M -7.16376",-2.227 and 0.1217 and -2.055 and -7.498
same,"Ca2+ response (Fig 2c), individual replicate values","parental 1321N1 cells; [compound],M -7.64088",-2.514 and 3.502 and -1.826 and -6.754
same,"Ca2+ response (Fig 2c), individual replicate values","parental 1321N1 cells; [compound],M -8.118",-3.774 and -3.545 and -0.5085
same,"Ca2+ response (Fig 2c), individual replicate values","parental 1321N1 cells; [compound],M -8.59512",-10.4777 and -3.774 and -5.436 and -3.201
Trypsin,Emax,"hPAR2 [6]; agonist alone, AZ3451 0 µM",102
same,Relative activity,"hPAR2 [6]; agonist alone, AZ3451 0 µM",1
same,EC50,"hPAR2 [6]; agonist alone, AZ3451 0 µM, read-out: EC50",6 nM
same,Emax,hPAR2 [6]; [7],96
same,Relative activity,hPAR2 [6]; [7],0.43
same,Emax,hPAR2 [6]; [8],90
same,Relative activity,hPAR2 [6]; [8],0.28
same,Emax,hPAR2 [6]; [9],90
same,Relative activity,hPAR2 [6]; [9],0.20
same,Emax,hPAR2 [6]; [10],89
same,Relative activity,hPAR2 [6]; [10],0.17
same,Emax,hPAR2 [6]; [11],74
same,Relative activity,hPAR2 [6]; [11],0.12
same,Emax,hPAR2 [6]; [12],61
same,Relative activity,hPAR2 [6]; [12],0.09
